Results: patent publication US20260034123A1 (Cedilla Therapeutics, Inc., priority 2022, published 2026)

Legend:
CDK2/Cyclin E1 = CDK2/Cyclin E1 (Homo sapiens, UniProt P24941); assay: Caliper LabChip EZ Reader mobility shift assay; format: biochemical; conditions: 2.5 nM CDK2/Cyclin E1(14-475), 100 μM ATP, 30 min preincubation; read-out: Caliper Assay (CDK2/CCNE1): IC50
Protocol: Inhibition of CDK2/Cyclin E1 activity in the presence of compounds of the present disclosure was evaluated using a Caliper LabChip® EZ Reader mobility shift assay. In the assay, activated CDK2/Cyclin E1 catalyzes the phosphorylation of a fluorescently tagged peptide 5-FAM-QSPKKG-CONH2 (PerkinElmer, FL Peptide 18) which induces a difference in capillary electrophoresis mobility. The peptide substrate and product were measured, and the conversion ratio was used to determine the inhibition (as % activity and IC50 values) of CDK2/Cyclin E1. Reactions contained 50 mM HEPES pH 7.5, 10 mM MgCl2, 1 mM EDTA, 2 mM DTT, 0.01% Brij35, 0.5 mg/mL BSA, 0.1% DMSO, 2.5 nM CDK2/Cyclin E1(14-475), 100 μM ATP, and 1.5 μM fluorescent peptide substrate.
Dose titrations of inhibitors in 100% DMSO were combined with 3.25 nM CDK2/Cyclin E1(14-475) and 130 μM of ATP in reaction buffer. The mixtures were incubated for 30 minutes before the addition of fluorescent peptide substrate to initiate the kinase reaction. The final conditions were 2.5 nM CDK2/Cyclin E1(14-475), 100 μM ATP, and 1.5 μM fluorescent peptide. The reactions were stopped after 100 minutes with the addition of EDTA (6 mM final EDTA concentration). The stopped reactions were analyzed on a Caliper LabChip® EZ Reader 11. The conversion ratios were normalized to yield % activity, plotted against compound concentration, and fit to a four-parameter equation to determine the IC50 for each compound.

Kuramochi cells RB-WT = assay: IncuCyte Kuramochi cell proliferation assay, RB-WT; format: cell-based; conditions: 72 hours, cell count
Summary of the method: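 mApple-H2B-labelled Kuramochi cells were treated with a 10-point, half-log series (top 20 µM) and imaged at 0 and 72 h. Fluorescent nuclei were counted, and the 0–72 h fold change was normalized to DMSO wells. GI50 came from dose-response fits.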

SMILES | IC50 (CDK2/Cyclin E1) [µM] | IC50 (Kuramochi cells RB-WT) [µM]
COc1ccccc1-c1cccc(C(=O)NC[C@@H]2CN(CC3CCCO3)CC23CN(C(=O)[C@H]2CC2(C)C)C3)n1 (stereo partly drawn) [Compound I-10, N-(((8R)-2-((S)-2,2-dimethylcyclopropane-1-carbonyl)-6-((tetrahydrofuran-2-yl)methyl)-2,6-diazaspiro[3.4]octan-8-yl)methyl)-6-(2-methoxyphenyl)picolinamide] | 1 to 10 | > 10
O=C(c1cncs1)N1C[C@@H](COCc2cccc(-c3ccc(C(F)(F)F)cc3)n2)C2(CN(CC3CCCO3)C2)C1 (stereo partly drawn) [Compound I-11, ((8S)-2-((Tetrahydrofuran-2-yl)methyl)-8-(((6-(4-(trifluoromethyl)phenyl)pyridin-2-yl)methoxy)methyl)-2,6-diazaspiro[3.4]octan-6-yl)(thiazol-5-yl)methanone] | > 10 | > 10
O=C([C@H]1CC1(F)F)N1CC2(CN(Cc3cncs3)C[C@H]2COCc2cccc(-c3ccc(C(F)(F)F)cc3)n2)C1 [Compound I-12, ((R)-2,2-difluorocyclopropyl)((S)-6-(thiazol-5-ylmethyl)-8-(((6-(4-(trifluoromethyl)phenyl)pyridin-2-yl)methoxy)methyl)-2,6-diazaspiro[3.4]octan-2-yl)methanone] | > 10 | > 10
CC1(C)C[C@@H]1C(=O)N1CC2(CN(C(=O)c3cncs3)C[C@H]2COC(COC2CCC(F)(F)CC2)c2cccc(C3CCOCC3)n2)C1 (stereo partly drawn) [Compound I-13, ((8S)-8-((2-((4,4-difluorocyclohexyl)oxy)-1-(6-(tetrahydro-2H-pyran-4-yl)pyridin-2-yl)ethoxy)methyl)-2-((S)-2,2-dimethylcyclopropane-1-carbonyl)-2,6-diazaspiro[3.4]octan-6-yl)(thiazol-5-yl)methanone] | 0.1 to 1 | > 10
CC(OC[C@@H]1CN(C(=O)c2cncs2)CC12CN(C(=O)[C@H]1CC1(C)C)C2)c1cccc(C2CCOCC2)n1 (stereo partly drawn) [Compound I-14, ((S)-2-((S)-2,2-dimethylcyclopropane-1-carbonyl)-8-((1-(6-(tetrahydro-2H-pyran-4-yl)pyridin-2-yl)ethoxy)methyl)-2,6-diazaspiro[3.4]octan-6-yl)(thiazol-5-yl)methanone] | 1 to 10 | > 10
O=C(c1cncs1)N1C[C@@H](COCc2cccc(-c3ccc(C(F)(F)F)cc3)n2)C2(CN(CC3COC3)C2)C1 [Compound I-15, (S)-(2-(oxetan-3-ylmethyl)-8-(((6-(4-(trifluoromethyl)phenyl)pyridin-2-yl)methoxy)methyl)-2,6-diazaspiro[3.4]octan-6-yl)(thiazol-5-yl)methanone] | > 10 | > 10
CC(C)(C)CN1CC2(C1)CN(C(=O)c1cncs1)C[C@H]2COCc1cccc(-c2ccc(C(F)(F)F)cc2)n1 [Compound I-16, (S)-(2-neopentyl-8-(((6-(4-(trifluoromethyl)phenyl)pyridin-2-yl)methoxy)methyl)-2,6-diazaspiro[3.4]octan-6-yl)(thiazol-5-yl)methanone] | > 10 | 5 to 10
CC(C)(C)CN1CC2(C1)CN(C(=O)c1cnccn1)C[C@H]2COCc1cccc(-c2ccc(C(F)(F)F)cc2)n1 [Compound I-17, (S)-(2-neopentyl-8-(((6-(4-(trifluoromethyl)phenyl)pyridin-2-yl)methoxy)methyl)-2,6-diazaspiro[3.4]octan-6-yl)(pyrazin-2-yl)methanone] | > 10 | > 10
CC1(C)C[C@@H]1C(=O)N1CC2(CN(C(=O)c3cnccn3)C[C@H]2COCc2cccc(-c3ccc(C(F)(F)F)cc3)n2)C1 [Compound I-18, ((S)-2-((S)-2,2-dimethylcyclopropane-1-carbonyl)-8-(((6-(4-(trifluoromethyl)phenyl)pyridin-2-yl)methoxy)methyl)-2,6-diazaspiro[3.4]octan-6-yl) (pyrazin-2-yl)methanone] | 0.01 to 0.1 | > 10
CC1(C)C[C@@H]1C(=O)N1CC2(CN(Cc3cnccn3)C[C@H]2COCc2cccc(-c3ccc(C(F)(F)F)cc3)n2)C1 [Compound I-19, ((S)-2,2-dimethylcyclopropyl)((S)-6-(pyrazin-2-ylmethyl)-8-(((6-(4-(trifluoromethyl)phenyl)pyridin-2-yl)methoxy)methyl)-2,6-diazaspiro[3.4]octan-2-yl) methanone] | > 10 | > 10
CC1(C)C[C@@H]1C(=O)N1CC2(CN(C(=O)c3cncs3)C[C@H]2COCc2cccc(-c3cccnc3)n2)C1 [Compound I-20, ((S)-8-(([2,3′-bipyridin]-6-ylmethoxy)methyl)-2-((S)-2,2-dimethylcyclopropane-1-carbonyl)-2,6-diazaspiro[3.4]octan-6-yl)(thiazol-5-yl)methanone] | 0.1 to 1 | > 10
CC1(C)C[C@@H]1C(=O)N1CC2(CN(C(=O)c3cncs3)C[C@H]2COCc2cccc(-c3ccc(C(F)(F)F)nc3)n2)C1 [Compound I-21, ((S)-2-((S)-2,2-dimethylcyclopropane-1-carbonyl)-8-(((6′-(trifluoromethyl)-[2,3′-bipyridin]-6-yl)methoxy)methyl)-2,6-diazaspiro[3.4]octan-6-yl)(thiazol-5-yl)methanone] | 0.1 to 1 | > 10
CC1(C)C[C@@H]1C(=O)N1CC2(CN(C(=O)c3cncs3)C[C@H]2COc2cccc3c(C4CCOCC4)cccc23)C1 [Compound I-22, ((S)-2-((S)-2,2-dimethylcyclopropane-1-carbonyl)-8-(((5-(tetrahydro-2H-pyran-4-yl)naphthalen-1-yl)oxy)methyl)-2,6-diazaspiro[3.4]octan-6-yl)(thiazol-5-yl)methanone] | 0.1 to 1 | > 10
CC1(C)C[C@@H]1C(=O)N1CC2(CN(C(=O)c3cncs3)C[C@H]2COc2cncc3c(C4CCOCC4)cccc23)C1 [Compound I-23, ((S)-2-((S)-2,2-dimethylcyclopropanecarbonyl)-8-(((8-(tetrahydro-2H-pyran-4-yl)isoquinolin-4-yl)oxy)methyl)-2,6-diazaspiro[3.4]octan-6-yl)(thiazol-5-yl)methanone] | 1 to 10 | > 10
CC1(C)C[C@@H]1C(=O)N1CC2(CN(C(=O)c3cncs3)C[C@H]2COCc2cccc(C3CCC(OC(F)(F)F)CC3)n2)C1 (stereo partly drawn) [Compound I-24, ((S)-2-((S)-2,2-dimethylcyclopropane-1-carbonyl)-8-(((6-(4-(trifluoromethoxy)cyclohexyl)pyridin-2-yl)methoxy)methyl)-2,6-diazaspiro[3.4]octan-6-yl)(thiazol-5-yl) methanone] | 0.01 to 0.1 | 5 to 10
CC1(C)C[C@@H]1C(=O)N1CC2(CN(C(=O)c3cncs3)C[C@H]2COc2nccc3c(C4CCOCC4)cccc23)C1 [Compound I-25, ((S)-2-((S)-2,2-dimethylcyclopropanecarbonyl)-8-(((5-(tetrahydro-2H-pyran-4-yl)isoquinolin-1-yl)oxy)methyl)-2,6-diazaspiro[3.4]octan-6-yl)(thiazol-5-yl)methanone] | 0.1 to 1 | > 10
CN(Cc1cccc(C2CCOCC2)n1)C[C@@H]1CN(C(=O)c2cncs2)CC12CN(C(=O)[C@H]1CC1(C)C)C2 [Compound I-26, (2-((S)-2,2-dimethylcyclopropanecarbonyl)-8-((methyl((6-(tetrahydro-2H-pyran-4-yl)pyridin-2-yl)methyl)amino)methyl)-2,6-diazaspiro[3.4]octan-6-yl)(thiazol-5-yl) methanone] | > 10 | > 10
CC1(C)C[C@@H]1C(=O)N1CC2(CN(C(=O)c3cncs3)C[C@H]2COCc2cc3ccccc3c(C3CCOCC3)n2)C1 [Compound I-28, ((S)-2-((S)-2,2-dimethylcyclopropane-1-carbonyl)-8-(((1-(tetrahydro-2H-pyran-4-yl)isoquinolin-3-yl)methoxy)methyl)-2,6-diazaspiro[3.4]octan-6-yl)(thiazol-5-yl)methanone] | 0.1 to 1 | > 10
CC1(C)C[C@@H]1C(=O)N1CC2(CN(C(=O)c3cncs3)C[C@H]2COCc2ccn[nH]2)C1 [Compound I-29, ((S)-8-(((1H-pyrazol-5-yl)methoxy)methyl)-2-((S)-2,2-dimethylcyclopropanecarbonyl)-2,6-diazaspiro[3.4]octan-6-yl)(thiazol-5-yl)methanone] | > 10 | > 10
CC1(C)C[C@@H]1C(=O)N1CC2(CN(C(=O)c3cncs3)C[C@H]2COc2cccc3ccc(C4CCOCC4)nc23)C1 [Compound I-30, ((S)-2-((S)-2,2-dimethylcyclopropanecarbonyl)-8-(((2-(tetrahydro-2H-pyran-4-yl)quinolin-8-yl)oxy)methyl)-2,6-diazaspiro[3.4]octan-6-yl)(thiazol-5-yl)methanone] | 1 to 10 | > 10
